Experimental data reported in patent US20240294572A1, “Antimicrobial Peptides” (priority 2021, published 2024).
Values after ≈ are worked out from the molar mass of the structure shown. Non-standard residues stand in square brackets, D forms with d. Residues, ends and D or L forms follow the SMILES beside them. *: point of attachment. Decanoyl = CCCCCCCCCC(=O)*

Key:
S. aureus USA300 LAC = test: Catheter-associated murine biofilm model; format: in vivo, mice; conditions: single dose 15 mg/kg (250 μg) into and around catheter, day 3
Description: Peptide potency was evaluated in the catheter model as described (Wang, et al. (2014) ACS Chem. Biol., 9:1997-2002; Heim, et al. (2014) Methods Mol. Biol., 1106:183-191). On the day of infection, mice were anesthetized using ketamine/xylazine (100/10 mg/kg). A small incision was made on the left flank region of the mouse, and using small blunt spatula, a pouch was made for catheter insertion. A sterile catheter with a length of 1 cm was inserted into the pouch aseptically. The wound was sealed using wound closure VetBond™ glue. Bacterial inoculum (20 μL with 10^3 CFU) was injected into the lumen of the catheter. Two hours post infection, the peptide was injected at 15 mg/kg (50 μL at each of the five sites in and around the catheter). Mice were allowed full recovery from anesthesia in an oxygen-enriched chamber. Three days after infection, untreated and treated animal groups were CO2 euthanized and the tissue around the catheter was harvested along with the catheter. A bacterial uninfected catheter group was included as a negative control. All the catheters were sonicated at 37 kHz for 15 minutes to release the bacteria in biofilms, and the tissues were homogenized. […] Degree of significance was represented as *p<0.05**p<0.01, ***p<0.001, and NS means no significance (determined by nonparametric, unpaired, Mann-Whitney test).

[1] = system: S. aureus USA300 transposon mutant SAUSA300_1465; test: Antimicrobial susceptibility of transposon mutant; format: cell-based; parameters: key: No = no MIC changes of C10-KR8d against the WT and the mutant S. aureus strains measured in 50% TSB; conditions: mutant SAUSA300_1465 versus WT
Description: (§1) The antimicrobial susceptibility of over 20 MRSA transposon mutants were also tested, based on a transposon library screening, in the presence of LL-37 peptides (Golla, et al. (2020) ACS Infect. Dis., 6:1866-1881). This Nebraska Transposon Mutant Library of S. aureus USA300 consists of 1920 mutants, each with one nonessential gene disabled due to a transposon insertion (Fey, et al. (2013) mBio 4:e00537-12). The correct insertion of the transposon to each Staph mutant had been verified (Golla, et al. (2020) ACS Infect. Dis., 6:1866-1881). Antimicrobial susceptibility to the new peptide C10-KR8d was evaluated in the same manner as MIC assays. Susceptible strains could be inhibited at a peptide concentration lower than the MIC against the wild strain S. aureus JE2.

[2] = system: S. aureus USA300 transposon mutant SAUSA300_1967; test: Antimicrobial susceptibility of transposon mutant; format: cell-based; parameters: key: No = no MIC changes of C10-KR8d against the WT and the mutant S. aureus strains measured in 50% TSB; conditions: mutant SAUSA300_1967 versus WT
Description: as §1

[3] = system: S. aureus USA300 transposon mutant SAUSA300_1503; test: Antimicrobial susceptibility of transposon mutant; format: cell-based; parameters: key: No = no MIC changes of C10-KR8d against the WT and the mutant S. aureus strains measured in 50% TSB; conditions: mutant SAUSA300_1503 versus WT
Description: as §1

[4] = system: S. aureus USA300 transposon mutant SAUSA300_0186 (argC); test: Antimicrobial susceptibility of transposon mutant; format: cell-based; parameters: key: No = no MIC changes of C10-KR8d against the WT and the mutant S. aureus strains measured in 50% TSB; conditions: mutant SAUSA300_0186 argC versus WT
Description: as §1

P. aeruginosa PAO1 = format: cell-based
Method in brief: (§2)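 Broth microdilution per CLSI M07-A10 with minor changes: 2-fold peptide dilutions plus log-phase bacteria (OD600 ~0.5) diluted to 0.001 OD, in TSB. Incubated overnight at 37 °C; growth read at 630 nm.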

[5] = system: clinical strains of S. aureus, including USA200, USA400, Newman, and Mu50; format: cell-based
Method in brief: as §2

SMILES	bacterial burden (CFU) on catheter and surrounding tissue (S. aureus USA300 LAC)	Susceptible? [1]	Susceptible? [2]	Susceptible? [3]	Susceptible? [4]	MIC (μM) PA (P. aeruginosa PAO1)	MIC against clinical strains of S. aureus [5]
CCCCCCCCCC(=O)N[C@H](CCCCN)C(=O)N[C@H](CCCNC(=N)N)C(=O)N[C@@H](C(=O)N[C@H](Cc1c[nH]c2ccccc12)C(=O)N[C@H](CCC(N)=O)C(=O)N[C@H](CCCNC(=N)N)C(=O)N[C@@H](C(=O)N[C@H](CCCCN)C(N)=O)[C@H](C)CC)[C@H](C)CC [Peptide C10-KR8d] (Decanoyl-[dK][dR][dI][dW][dQ][dR][dI][dK]-NH2)	clear decrease in bacterial burden	No	No	No	No		
CCCCCCCCCC(=O)N[C@@H](CCCCN)C(=O)N[C@@H](CCCNC(=N)N)C(=O)N[C@H](C(=O)N[C@@H](Cc1c[nH]c2ccccc12)C(=O)N[C@@H](CCC(N)=O)C(=O)N[C@@H](CCCNC(=N)N)C(=O)N[C@H](C(=O)N[C@@H](CCCCN)C(N)=O)[C@@H](C)CC)[C@@H](C)CC [Peptide C10-KR8] (Decanoyl-KRIWQRIK-NH2)						6.2 µM (≈ 7.94 µg/mL)	1.6 to 6.2 µM
